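Compound exposure: 48 hours, 5 concentrations, 96-well plates. At the GI50, growth is halved.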 The source made the active and inactive calls. No stated cut-off is given here; in the data, active = GI50 up to about 1.1 µM and inactive = higher.
Experiments:
Test in all cases: growth of human tumour cells (NCI), 48 h
[1] = tested on: ACHN
[2] = tested on: UACC-62
[3] = tested on: SN12C
[4] = tested on: 786-0
[5] = tested on: HCC 2998
[6] = tested on: LOX IMVI
[7] = tested on: HCT-15
[8] = tested on: A549
[9] = tested on: SK-MEL-28
[10] = tested on: CAKI-1
[11] = tested on: NCI-H522
[12] = tested on: MOLT-4
[13] = tested on: OVCAR-3
[14] = tested on: UACC-257
[15] = tested on: HCT-116
[16] = tested on: UO-31
[17] = tested on: SF-268
[18] = tested on: A498
[19] = tested on: NCI-H226
[20] = tested on: HT-29

COC(=O)c1sc2c(=O)c(C(=O)OC)c(C(=O)OC)sc2c(=O)c1C(=O)OC
GI50 [1]: > 100 µM (inactive)
GI50 [2]: > 100 µM (inactive)
GI50 [3]: > 100 µM (inactive)
GI50 [4]: > 100 µM (inactive)
GI50 [5]: > 100 µM (inactive)
GI50 [6]: 73.3 µM (inactive)
GI50 [7]: > 100 µM
GI50 [8]: > 100 µM (inactive)
GI50 [9]: > 100 µM (inactive)
GI50 [10]: > 100 µM (inactive)
GI50 [11]: 21.5 µM (inactive)
GI50 [12]: 5.85 µM (inactive)
GI50 [13]: > 100 µM (inactive)
GI50 [14]: > 100 µM (inactive)
GI50 [15]: > 100 µM (inactive)
GI50 [16]: > 100 µM (inactive)
GI50 [17]: > 62.7 µM (inactive)
GI50 [18]: > 100 µM (inactive)
GI50 [19]: > 100 µM (inactive)
GI50 [20]: > 100 µM (inactive)

COC1C(O)C(O[C@H]2CC[C@@]3(C)C(CC[C@@H]4[C@@H]3CC[C@]3(C)[C@@H](C(C)OC5OC(CO)C(O)C(O)C5O)CC[C@]43O)C2)OC(C)C1OC1OC(CO)C(O)C(O)C1O (stereo not given in full)
GI50 [1]: > 100 µM (inactive)
GI50 [2]: > 100 µM (inactive)
GI50 [3]: > 100 µM (inactive)
GI50 [4]: > 100 µM (inactive)
GI50 [5]: > 100 µM (inactive)
GI50 [6]: > 100 µM (inactive)
GI50 [7]: > 100 µM
GI50 [8]: > 100 µM (inactive)
GI50 [9]: > 100 µM (inactive)
GI50 [10]: > 100 µM (inactive)
GI50 [11]: > 100 µM (inactive)
GI50 [12]: > 100 µM (inactive)
GI50 [13]: > 100 µM (inactive)
GI50 [14]: > 100 µM (inactive)
GI50 [15]: > 100 µM (inactive)
GI50 [16]: > 100 µM (inactive)
GI50 [17]: > 100 µM (inactive)
GI50 [18]: > 100 µM (inactive)
GI50 [19]: > 100 µM (inactive)
GI50 [20]: > 100 µM (inactive)

COc1cc(OC)c(C/C=C/c2ccccc2)cc1O
GI50 [1]: 25.7 µM (inactive)
GI50 [2]: 15.5 µM (inactive)
GI50 [3]: 16 µM (inactive)
GI50 [4]: 18.2 µM (inactive)
GI50 [5]: 16.3 µM (inactive)
GI50 [6]: 16 µM (inactive)
GI50 [7]: 16.5 µM
GI50 [8]: 19.4 µM (inactive)
GI50 [9]: 16.6 µM (inactive)
GI50 [10]: 21.5 µM (inactive)
GI50 [11]: 12.6 µM (inactive)
GI50 [12]: 11.8 µM (inactive)
GI50 [13]: 14.7 µM (inactive)
GI50 [14]: 23.6 µM (inactive)
GI50 [15]: 16.4 µM (inactive)
GI50 [16]: 14.7 µM (inactive)
GI50 [17]: 16.7 µM (inactive)
GI50 [18]: 14.8 µM (inactive)
GI50 [19]: 17.9 µM (inactive)
GI50 [20]: 17.7 µM (inactive)

CSc1ccc(-c2cn3ccsc3n2)c(O)c1
GI50 [1]: > 82.6 µM (inactive)
GI50 [2]: 69.7 µM (inactive)
GI50 [3]: > 79.1 µM (inactive)
GI50 [4]: 20.7 µM (inactive)
GI50 [5]: > 60 µM (inactive)
GI50 [6]: 20 µM (inactive)
GI50 [7]: 17.6 µM
GI50 [8]: > 90.8 µM (inactive)
GI50 [9]: > 100 µM (inactive)
GI50 [10]: > 100 µM (inactive)
GI50 [11]: 37.2 µM (inactive)
GI50 [12]: 30.5 µM (inactive)
GI50 [13]: 36.7 µM (inactive)
GI50 [14]: > 24.2 µM (inactive)
GI50 [15]: 30.3 µM (inactive)
GI50 [16]: 59.8 µM (inactive)
GI50 [17]: 36.7 µM (inactive)
GI50 [18]: > 86.3 µM (inactive)
GI50 [19]: > 100 µM (inactive)
GI50 [20]: 83.2 µM (inactive)

[N-]=[N+]=Nc1ccccc1Oc1ccccc1
GI50 [1]: > 100 µM (inactive)
GI50 [2]: > 100 µM (inactive)
GI50 [3]: > 100 µM (inactive)
GI50 [4]: > 100 µM (inactive)
GI50 [5]: > 100 µM (inactive)
GI50 [6]: > 100 µM (inactive)
GI50 [7]: > 100 µM
GI50 [8]: > 100 µM (inactive)
GI50 [9]: > 100 µM (inactive)
GI50 [10]: > 100 µM (inactive)
GI50 [11]: > 100 µM (inactive)
GI50 [12]: > 100 µM (inactive)
GI50 [13]: > 100 µM (inactive)
GI50 [14]: > 100 µM (inactive)
GI50 [15]: > 100 µM (inactive)
GI50 [16]: > 100 µM (inactive)
GI50 [17]: > 100 µM (inactive)
GI50 [18]: > 100 µM (inactive)
GI50 [19]: > 100 µM (inactive)
GI50 [20]: > 100 µM (inactive)

CC1(C)C(O)c2ccccc2OC1N1CCN(C2Oc3ccccc3C(O)C2(C)C)CC1 (stereo not given)
GI50 [1]: > 100 µM (inactive)
GI50 [2]: > 100 µM (inactive)
GI50 [3]: > 100 µM (inactive)
GI50 [4]: > 100 µM (inactive)
GI50 [5]: > 100 µM (inactive)
GI50 [6]: > 100 µM (inactive)
GI50 [7]: > 100 µM
GI50 [8]: > 100 µM (inactive)
GI50 [9]: > 100 µM (inactive)
GI50 [10]: > 100 µM (inactive)
GI50 [11]: > 100 µM (inactive)
GI50 [12]: > 100 µM (inactive)
GI50 [13]: > 100 µM (inactive)
GI50 [14]: > 100 µM (inactive)
GI50 [15]: > 100 µM (inactive)
GI50 [16]: > 100 µM (inactive)
GI50 [17]: > 100 µM (inactive)
GI50 [18]: 30 µM (inactive)
GI50 [19]: > 100 µM (inactive)
GI50 [20]: > 100 µM (inactive)

CCOC(=O)c1sc2ncnc(N)c2c1C
GI50 [1]: 65.8 µM (inactive)
GI50 [2]: 35.3 µM (inactive)
GI50 [3]: 21.4 µM (inactive)
GI50 [4]: 53.8 µM (inactive)
GI50 [5]: 40.1 µM (inactive)
GI50 [6]: 43.8 µM (inactive)
GI50 [7]: 73.6 µM
GI50 [8]: > 100 µM (inactive)
GI50 [9]: 45.3 µM (inactive)
GI50 [10]: 35.9 µM (inactive)
GI50 [11]: 59.3 µM (inactive)
GI50 [12]: 65.2 µM (inactive)
GI50 [13]: > 100 µM (inactive)
GI50 [14]: 34.4 µM (inactive)
GI50 [15]: 30.5 µM (inactive)
GI50 [16]: 82.4 µM (inactive)
GI50 [17]: 68.5 µM (inactive)
GI50 [18]: 24.4 µM (inactive)
GI50 [19]: 75.5 µM (inactive)
GI50 [20]: 18.2 µM (inactive)

CCCCCC1=C/C(=C\c2[nH]c(-c3ccc[nH]3)cc2OC)N=C1C
GI50 [1]: < 0.01 µM (active)
GI50 [2]: < 0.01 µM (active)
GI50 [3]: < 0.01 µM (active)
GI50 [4]: < 0.01 µM (active)
GI50 [5]: 0.0113 µM (active)
GI50 [6]: < 0.01 µM (active)
GI50 [7]: < 0.01 µM
GI50 [8]: 0.0167 µM (active)
GI50 [9]: 0.0215 µM (active)
GI50 [10]: < 0.01 µM (active)
GI50 [11]: < 0.01 µM (active)
GI50 [12]: < 0.01 µM (active)
GI50 [13]: < 0.01 µM (active)
GI50 [14]: 0.0684 µM (active)
GI50 [15]: < 0.01 µM (active)
GI50 [16]: 0.011 µM (active)
GI50 [17]: < 0.01 µM (active)
GI50 [18]: 0.0989 µM (active)
GI50 [19]: 0.012 µM (active)
GI50 [20]: < 0.01 µM (active)

N#C[BH2-][n+]1ccc(C(=O)NNCc2cccc(C(F)(F)F)c2)cc1
GI50 [1]: 33.7 µM (inactive)
GI50 [2]: 4.59 µM (inactive)
GI50 [3]: 28.8 µM (inactive)
GI50 [4]: 4.83 µM (inactive)
GI50 [5]: 7.11 µM (inactive)
GI50 [6]: 4.26 µM (inactive)
GI50 [7]: 21.3 µM
GI50 [8]: 13.5 µM (inactive)
GI50 [9]: 5.5 µM (inactive)
GI50 [10]: 37.9 µM (inactive)
GI50 [11]: 16.3 µM (inactive)
GI50 [12]: 17.6 µM (inactive)
GI50 [13]: 10.9 µM (inactive)
GI50 [14]: 4.92 µM (inactive)
GI50 [15]: 15.2 µM (inactive)
GI50 [16]: 11.9 µM (inactive)
GI50 [17]: 4.82 µM (inactive)
GI50 [18]: 21.6 µM (inactive)
GI50 [19]: 3.27 µM (inactive)
GI50 [20]: 6.01 µM (inactive)

CCCNC1=C2CC(C)CC(OC)[C@@H](O)[C@H](C)/C=C(\C)C(OC(N)=O)C(OC)/C=C\C=C(/C)C(=O)NC(=CC1=O)C2=O (stereo not given in full)
GI50 [1]: 0.502 µM (active)
GI50 [2]: 0.054 µM (active)
GI50 [3]: 0.0809 µM (active)
GI50 [4]: 0.443 µM (active)
GI50 [5]: 0.264 µM (active)
GI50 [6]: 0.103 µM (active)
GI50 [7]: 0.321 µM
GI50 [8]: 0.0847 µM (active)
GI50 [9]: 0.0627 µM (active)
GI50 [10]: 11.5 µM (inactive)
GI50 [11]: 0.00678 µM (active)
GI50 [12]: 0.332 µM (active)
GI50 [13]: 1.65 µM (inactive)
GI50 [14]: 0.0975 µM (active)
GI50 [15]: 0.231 µM (active)
GI50 [16]: 2.94 µM (inactive)
GI50 [17]: 0.524 µM (active)
GI50 [18]: 0.944 µM (active)
GI50 [19]: 0.551 µM (active)
GI50 [20]: 0.0101 µM (active)
